In the supplement of paper PMC4649846:

Columns and labels:
MDA-MB-231 [1] = experiment: drug sensitivity score (DSS); higher = more sensitive; extreme values may be limits of the assay; settings: incubation time: 72 h
Procedure, shortened: (§1)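 For the IC50 and drug sensitivity score, logistic dose–response curves were fitted in Dotmatics Studies. The score compares curve area with a reference area and is normalised by log of top response. Input data were CellTiter-Blue fluorescence readings from MDA-MB-231 cells, transfected a day earlier with BRCA1 or non-targeting control siRNA, that had spent 72 h at 37 °C and 5% CO2 at 4000 cells per well in 384-well plates with compounds at 5 concentrations.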

MDA-MB-231 [2] = settings: incubation time: 72 h
Procedure, shortened: as §1

[3] = siRNA: siControl (non-targeting)

SMILES: C=CC(=O)Nc1cc2c(Nc3ccc(F)c(Cl)c3)ncnc2cc1OCCCN1CCOCC1 [Canertinib]
- drug sensitivity score (MDA-MB-231 [1]; siRNA: siBRCA1): 5.78
- drug sensitivity score (MDA-MB-231 [1]; [3]): 7.67
- IC50 of cell viability (MDA-MB-231 [2]; siRNA: siBRCA1): 2510 nM
- IC50 of cell viability (MDA-MB-231 [2]; [3]): 1690 nM

SMILES: Cc1ccc(Nc2nccc(N(C)c3ccc4c(C)n(C)nc4c3)n2)cc1S(N)(=O)=O [Pazopanib]
- drug sensitivity score (MDA-MB-231 [1]; siRNA: siBRCA1): 0
- drug sensitivity score (MDA-MB-231 [1]; [3]): 0
- IC50 of cell viability (MDA-MB-231 [2]; siRNA: siBRCA1): > 4170 nM
- IC50 of cell viability (MDA-MB-231 [2]; [3]): > 4170 nM

SMILES: COc1cccc2c1C(=O)c1c(O)c3c(c(O)c1C2=O)C[C@@](O)(C(=O)CO)C[C@@H]3O[C@H]1C[C@H](N)[C@H](O)[C@H](C)O1 [Doxorubicin]
- drug sensitivity score (MDA-MB-231 [1]; siRNA: siBRCA1): 17.9
- drug sensitivity score (MDA-MB-231 [1]; [3]): 19.6
- IC50 of cell viability (MDA-MB-231 [2]; siRNA: siBRCA1): 205 nM
- IC50 of cell viability (MDA-MB-231 [2]; [3]): 148 nM

SMILES: Nc1nc2[nH]cnc2c(=S)[nH]1 [Thioguanine]
- drug sensitivity score (MDA-MB-231 [1]; siRNA: siBRCA1): 3.71
- drug sensitivity score (MDA-MB-231 [1]; [3]): 0
- IC50 of cell viability (MDA-MB-231 [2]; siRNA: siBRCA1): 1850 nM
- IC50 of cell viability (MDA-MB-231 [2]; [3]): > 4170 nM

SMILES: O=NN(CCCl)C(=O)NC1CCCCC1 [Lomustine]
- drug sensitivity score (MDA-MB-231 [1]; siRNA: siBRCA1): 0
- drug sensitivity score (MDA-MB-231 [1]; [3]): 0
- IC50 of cell viability (MDA-MB-231 [2]; siRNA: siBRCA1): > 4170 nM
- IC50 of cell viability (MDA-MB-231 [2]; [3]): > 4170 nM

SMILES: CO[C@@]12[C@H](COC(N)=O)C3=C(C(=O)C(C)=C(N)C3=O)N1C[C@@H]1N[C@@H]12 [Mitomycin C]
- drug sensitivity score (MDA-MB-231 [1]; siRNA: siBRCA1): 0
- drug sensitivity score (MDA-MB-231 [1]; [3]): 0
- IC50 of cell viability (MDA-MB-231 [2]; siRNA: siBRCA1): > 4170 nM
- IC50 of cell viability (MDA-MB-231 [2]; [3]): > 4170 nM

SMILES: C=CC[C@@H]1/C=C(\C)C[C@H](C)C[C@H](OC)[C@H]2O[C@@](O)(C(=O)C(=O)N3CCCC[C@H]3C(=O)O[C@H](/C(C)=C/[C@@H]3CC[C@@H](O)[C@H](OC)C3)[C@H](C)[C@@H](O)CC1=O)[C@H](C)C[C@@H]2OC [Tacrolimus]
- drug sensitivity score (MDA-MB-231 [1]; siRNA: siBRCA1): 0
- drug sensitivity score (MDA-MB-231 [1]; [3]): 0
- IC50 of cell viability (MDA-MB-231 [2]; siRNA: siBRCA1): > 4170 nM
- IC50 of cell viability (MDA-MB-231 [2]; [3]): > 4170 nM

SMILES: C=CCNC1=C2C[C@@H](C)C[C@H](OC)[C@H](O)[C@@H](C)/C=C(\C)[C@H](OC(N)=O)[C@@H](OC)/C=C\C=C(/C)C(=O)NC(=CC1=O)C2=O [Tanespimycin]
- drug sensitivity score (MDA-MB-231 [1]; siRNA: siBRCA1): 15.1
- drug sensitivity score (MDA-MB-231 [1]; [3]): 17.3
- IC50 of cell viability (MDA-MB-231 [2]; siRNA: siBRCA1): 377 nM
- IC50 of cell viability (MDA-MB-231 [2]; [3]): 233 nM

SMILES: CC(=O)O[C@H]1C(=O)[C@@]2(C)[C@H]([C@H](OC(=O)c3ccccc3)[C@]3(O)C[C@H](OC(=O)[C@H](O)[C@@H](NC(=O)c4ccccc4)c4ccccc4)C(C)=C1C3(C)C)[C@]1(OC(C)=O)CO[C@@H]1C[C@@H]2O [Paclitaxel]
- drug sensitivity score (MDA-MB-231 [1]; siRNA: siBRCA1): 29.8
- drug sensitivity score (MDA-MB-231 [1]; [3]): 27.2
- IC50 of cell viability (MDA-MB-231 [2]; siRNA: siBRCA1): 6.6 nM
- IC50 of cell viability (MDA-MB-231 [2]; [3]): 11.2 nM

SMILES: CC(C)(C)NC(=O)[C@H]1CC[C@H]2[C@@H]3CC[C@H]4NC(=O)C=C[C@]4(C)[C@H]3CC[C@]12C [Finasteride]
- drug sensitivity score (MDA-MB-231 [1]; siRNA: siBRCA1): 0
- drug sensitivity score (MDA-MB-231 [1]; [3]): 0
- IC50 of cell viability (MDA-MB-231 [2]; siRNA: siBRCA1): > 4170 nM
- IC50 of cell viability (MDA-MB-231 [2]; [3]): > 4170 nM

SMILES: CN1CCC(COc2cnc(-c3cccc(Cn4nc(-c5cccc(C#N)c5)ccc4=O)c3)nc2)CC1
- drug sensitivity score (MDA-MB-231 [1]; siRNA: siBRCA1): 3.92
- drug sensitivity score (MDA-MB-231 [1]; [3]): 3.58
- IC50 of cell viability (MDA-MB-231 [2]; siRNA: siBRCA1): 3770 nM
- IC50 of cell viability (MDA-MB-231 [2]; [3]): 4020 nM

SMILES: COc1nc(N)nc2c1ncn2[C@@H]1O[C@H](CO)[C@@H](O)[C@@H]1O [Nelarabine]
- drug sensitivity score (MDA-MB-231 [1]; siRNA: siBRCA1): 0
- drug sensitivity score (MDA-MB-231 [1]; [3]): 0
- IC50 of cell viability (MDA-MB-231 [2]; siRNA: siBRCA1): > 4170 nM
- IC50 of cell viability (MDA-MB-231 [2]; [3]): > 4170 nM

SMILES: COc1ccc(S(=O)(=O)Nc2cccnc2Nc2ccc(O)cc2)cc1 [ABT-751]
- drug sensitivity score (MDA-MB-231 [1]; siRNA: siBRCA1): 13.9
- drug sensitivity score (MDA-MB-231 [1]; [3]): 13.5
- IC50 of cell viability (MDA-MB-231 [2]; siRNA: siBRCA1): 253 nM
- IC50 of cell viability (MDA-MB-231 [2]; [3]): 308 nM

SMILES: N[C@@H](CSC(c1ccccc1)(c1ccccc1)c1ccccc1)C(=O)O [S-trityl-L-cysteine]
- drug sensitivity score (MDA-MB-231 [1]; siRNA: siBRCA1): 15.2
- drug sensitivity score (MDA-MB-231 [1]; [3]): 15.6
- IC50 of cell viability (MDA-MB-231 [2]; siRNA: siBRCA1): 929 nM
- IC50 of cell viability (MDA-MB-231 [2]; [3]): 713 nM
